# Data as given in patent US12022827B2, “Compositions and methods to reduce dicamba volatility and provide plant essential nutrients” (THE BOARD OF TRUSTEES OF THE UNIVERSITY OF ARKANSAS, priority 2019, dated 2024).
# Tests used:
# [1] = tested on: soybean glufosinate-resistant cultivar (CDZ 4938); experiment: Low-tunnel field trial of dicamba volatilization, visible injury to soybean bioindicator (2020); format: in vivo
# Procedure: To further evaluate the efficacy of potassium tetraborate tetrahydrate in reducing volatilization of dicamba, a series of low-tunnel trials were conducted in Fayetteville, Arkansas in 2020, with each trial replicated twice. Experimental treatments were arranged as a single-factor randomized complete block design with three replications. […] A glufosinate-resistant cultivar (CDZ 4938) was planted on 36-inch spaced rows, serving as a bioindicator to quantify visible injury and distance traveled caused by dicamba volatility. Each low-tunnel placed in the field measured 5 by 20 ft (covering two rows of soybean). All tunnels were covered with transparent plastic to create an environment suitable for volatility and to contain the injury. After all tunnels were placed in the field, moistened flats of soil were placed 0.5 miles from the field and treated. Once treated, two flats were placed into appropriate tunnels between two rows of soybean with one flat on either side of a high-volume air sampler located in the center of each tunnel for 48 hours. Afterwards, the flats of soil, air samplers and tunnels were removed from the field. Immediately following trial initiation, pH of each spray solution was collected and analyzed. For data collection, soybean under each tunnel were divided into […] of 5 foot in length where visible injury was assessed on a 0 to 100 scale, where 0 equals no injury and 100 equals plant death. […] All data were subjected to analysis of variance and means separated using Fisher's protected least significance test (α=0.05)
# [2] = pH of tank mix, 2019 field trial; format: physicochemical
# Procedure: (§1) A field trial was conducted to determine the effect of adding potassium borate to the herbicide dicamba with respect to the volatilization of dicamba and the movement of dicamba within the environment. In this trial, potassium borate was added to two highly volatile formulations of dicamba, Clarity® (BASF) and Clash™ (Nufarm Americas, Inc), in combination with glyphosate (Roundup PowerMax II®). […] The formulations were applied to a moistened silt loam soil in contained in two plastic trays and placed under 20-foot long tunnels between two rows of dicamba-sensitive (i.e., non-tolerant) soybean crop. […] Soybean injury was visually assessed at 14 and 21 days after initiation of the experiment. Likewise, the distance from the center of the tunnel to the furthest observed 5% level of injury was measured. Air samplers in the center of each tunnel were also used to quantify dicamba volatilization. […]
# (§2) In order to evaluate a proprietary volatility reducing agent on several dicamba formulations, two low-tunnel trials were conducted in Fayetteville, Arkansas in 2019. […] Dicamba products evaluated included the diglycolamine (DGA) salt of dicamba (Xtendimax) plus a commercial volatility reduction agent (VaporGrip), DGA salt of dicamba (Clarity) with the volatility reduction agent BK3O3, the dimethylamine (DMA) salt of dicamba (Vanquish), and the DMA salt with BK3O3 along with a nontreated. […]
# [3] = tested on: dicamba-sensitive soybean; experiment: Low-tunnel field trial of dicamba volatilization, injury to dicamba-sensitive soybean (2019); format: in vivo; conditions: FIG. 1
# Procedure: as §1, §2
# [4] = Kborate concentration of 0.025 molar, even when mixed with the potassium salt of glyphosate
# Procedure: To further evaluate the efficacy of potassium tetraborate tetrahydrate in reducing volatilization of dicamba, a series of low-tunnel trials were conducted in Fayetteville, Arkansas in 2020, with each trial replicated twice. Experimental treatments were arranged as a single-factor randomized complete block design with three replications. […] A glufosinate-resistant cultivar (CDZ 4938) was planted on 36-inch spaced rows, serving as a bioindicator to quantify visible injury and distance traveled caused by dicamba volatility. Each low-tunnel placed in the field measured 5 by 20 ft (covering two rows of soybean). All tunnels were covered with transparent plastic to create an environment suitable for volatility and to contain the injury. After all tunnels were placed in the field, moistened flats of soil were placed 0.5 miles from the field and treated. Once treated, two flats were placed into appropriate tunnels between two rows of soybean with one flat on either side of a high-volume air sampler located in the center of each tunnel for 48 hours. […] Immediately following trial initiation, pH of each spray solution was collected and analyzed. For data collection, soybean under each tunnel were divided into eight quadrants of 5 foot in length where visible injury was assessed on a 0 to 100 scale, where 0 equals no injury and 100 equals plant death. […]
compound,measurement,setting,value
"CP(=O)(O)CCC(N)C(=O)O (stereo not shown) [glufosinate, 2-amino-4-[hydroxy(methyl)phosphoryl]butanoic acid, reference compound]",average visual injury to soybean in comparison to dicamba plus glyphosate,"[1]; glufosinate mixed with dicamba, FIG. 11, 21 days after treatment",increased average visual injury
[K+].[K+].[K+].[O-]B([O-])[O-] [potassium borate],increase in tank mix pH,[2]; potassium borate 30 g/L added to various formulations of dicamba mixed with glyphosate,1.9-2.15
same,increase of pH of tank mixes,[2]; potassium borate added to tank mixes comprising glyphosate and various formulations of dicamba,≤ 2.15 pH units
same,reduction of sensitive soybean injury,"[3]; potassium borate 30 g/L added, compared to standard tank mixes of dicamba or dicamba+glyphosate",≤ 18%
same,reduction of injury to sensitive soybean,"[3]; potassium borate added to dicamba, compared to standard tank mixes of dicamba",≤ 18 percentage points
potassium tetraborate tetrahydrate [Kborate],"reducing volatility of dicamba based on injury to soybean, compared with Kacetate",[1]; 0.015 molar concentration of Kborate,comparable to 0.05 moles of Kacetate
same,"reducing volatility of a dicamba plus glyphosate mixture, compared with Kacetate","[1]; FIGS. 8-10, 21 days after treatment",outperformed Kacetate
same,dicamba volatility of dicamba and glufosinate mixtures,"[1]; Kborate added, FIGS. 11-13, 21 days after treatment","reduced dicamba volatility, more so than did Kacetate"
same,volatilization of a dicamba plus glyphosate mixture based on average and maximum injury ratings and distance to 5% injury to soybean,"[1]; Kborate concentrations of 0.0125 molar or higher, 21 days after treatment, FIGS. 5-7",significantly reduced volatilization
same,pH of the spray solution,[4],above 6.0
